From US20260285850A1, “SUBSTITUTED OXAZOLIDINONES AND IMIDAZOLINONES AS HERBICIDES” (FMC CORPORATION, priority 2023, published 2026)

Key:
Type in all cases: in vivo
[1] = test system: green foxtail (Setaria viridis); experiment: Test A preemergence soil spray, visual injury rating 0-100; conditions: 10 days, 0 = no effect, 100 = complete control
Procedure, shortened: (§1)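 Compound in a non-phytotoxic, surfactant-containing solvent is applied either as a directed soil spray before seedlings emerge or onto emerged plants 2-10 cm tall; pots hold a loam-sand blend. Plants grow 10 days under greenhouse conditions and are rated by eye against untreated controls (0 no effect, 100 complete control).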

[2] = test system: ryegrass, Italian (italian ryegrass, Lolium multiflorum); experiment: as above; conditions: 10 days, 0 = no effect, 100 = complete control
Procedure, shortened: as §1

[3] = test system: barnyardgrass (Echinochloa crus-galli); experiment: as above; conditions: 10 days, 0 = no effect, 100 = complete control
Procedure, shortened: as §1

[4] = test system: corn (Zea mays); experiment: as above; conditions: 10 days, 0 = no effect, 100 = complete control
Procedure, shortened: as §1

[5] = test system: ragweed (common ragweed, Ambrosia artemisiifolia); experiment: as above; conditions: 10 days, 0 = no effect, 100 = complete control
Procedure, shortened: as §1

[6] = test system: soybean (Glycine max); experiment: as above; conditions: 10 days, 0 = no effect, 100 = complete control
Procedure, shortened: as §1

[7] = test system: kochia (Bassia scoparia); experiment: as above; conditions: 10 days, 0 = no effect, 100 = complete control
Procedure, shortened: as §1

[8] = test system: palmer (palmer amaranth, palmer pigweed, Amaranthus palmeri); experiment: as above; conditions: 10 days, 0 = no effect, 100 = complete control
Procedure, shortened: as §1

[9] = test system: blackgrass (Alopecurus myosuroides); experiment: as above; conditions: 10 days, 0 = no effect, 100 = complete control
Procedure, shortened: as §1

[10] = test system: oat, wild (wild oat, Avena fatua); experiment: as above; conditions: 10 days, 0 = no effect, 100 = complete control
Procedure, shortened: as §1

[11] = test system: wheat (Triticum aestivum); experiment: as above; conditions: 10 days, 0 = no effect, 100 = complete control
Procedure, shortened: as §1

[12] = test system: barnyardgrass (Echinochloa crusgalli); experiment: Test B flooded paddy test, visual plant response rating 0-100; conditions: 250 g ai/ha, Flood, applied to paddy water, evaluated after 13 days
Procedure, shortened: (§2)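 Visual evaluation after 13 days. Water-applied treatment, 3 cm flood depth held constant, plants at 2-leaf stage at treatment.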

[13] = test system: sedge, umbrella (small-flower umbrella sedge, Cyperus difformis); experiment: as above; conditions: 250 g ai/ha, Flood, applied to paddy water, evaluated after 13 days
Procedure, shortened: as §2

[14] = test system: ducksalad (Heteranthera limosa); experiment: as above; conditions: 250 g ai/ha, Flood, applied to paddy water, evaluated after 13 days
Procedure, shortened: as §2

[15] = test system: rice (Oryza sativa); experiment: as above; conditions: 250 g ai/ha, Flood, applied to paddy water, evaluated after 13 days
Procedure, shortened: as §2

[16] = test system: green foxtail (Setaria viridis); experiment: Test A postemergence application, visual injury rating 0-100; conditions: 10 days
Procedure, shortened: as §1

[17] = test system: ryegrass, Italian (italian ryegrass, Lolium multiflorum); experiment: as above; conditions: 10 days
Procedure, shortened: as §1

[18] = test system: barnyardgrass (Echinochloa crus-galli); experiment: as above; conditions: 10 days
Procedure, shortened: as §1

[19] = test system: corn (Zea mays); experiment: as above; conditions: 10 days
Procedure, shortened: as §1

[20] = test system: ragweed (common ragweed, Ambrosia artemisiifolia); experiment: as above; conditions: 10 days
Procedure, shortened: as §1

[21] = test system: soybean (Glycine max); experiment: as above; conditions: 10 days
Procedure, shortened: as §1

[22] = test system: kochia (Bassia scoparia); experiment: as above; conditions: 10 days
Procedure, shortened: as §1

[23] = test system: horseweed (Erigeron canadensis); experiment: as above; conditions: 10 days
Procedure, shortened: as §1

[24] = test system: palmer (palmer amaranth, palmer pigweed, Amaranthus palmeri); experiment: as above; conditions: 10 days
Procedure, shortened: as §1

[25] = test system: blackgrass (Alopecurus myosuroides); experiment: as above; conditions: 10 days
Procedure, shortened: as §1

[26] = test system: oat, wild (wild oat, Avena fatua); experiment: as above; conditions: 10 days
Procedure, shortened: as §1

[27] = test system: wheat (Triticum aestivum); experiment: as above; conditions: 10 days
Procedure, shortened: as §1

[28] = test system: galium (catchweed bedstraw, Galium aparine); experiment: as above; conditions: 10 days
Procedure, shortened: as §1

[29] = 31 g ai/ha, postemergence, 0 = no effect, 100 = complete control
[30] = Postemergence, 125 g ai/ha, 0 is no effect, 100 is complete control

SMILES: CC1(C(=O)NC2C=CC(C(=O)OCC(F)(F)F)C2)CN(c2cc(F)cc(F)c2)C(=O)O1 (stereo not shown) [Compound 55]
- Foxtail, Green plant response rating (0-100) ([1]; 31 g ai/ha): 0
- Foxtail, Green plant response rating (0 to 100 scale) ([1]; 125 g ai/ha): 90
- Ryegrass, Italian plant response rating (0-100) ([2]; 31 g ai/ha): 80
- Ryegrass, Italian plant response rating (0 to 100 scale) ([2]; 125 g ai/ha): 90
- Barnyardgrass plant response rating (0-100) ([3]; 31 g ai/ha): 20
- Barnyardgrass plant response rating (0 to 100 scale) ([3]; 125 g ai/ha): 100
- Corn plant response rating (0-100) ([4]; 31 g ai/ha): 20
- Corn plant response rating (0 to 100 scale) ([4]; 125 g ai/ha): 40
- Ragweed plant response rating (0-100) ([5]; 31 g ai/ha): 0
- Ragweed plant response rating (0 to 100 scale) ([5]; 125 g ai/ha): 0
- Soybean plant response rating (0-100) ([6]; 31 g ai/ha): 40
- Soybean plant response rating (0 to 100 scale) ([6]; 125 g ai/ha): 80
- Kochia plant response rating (0-100) ([7]; 31 g ai/ha): 0
- Kochia plant response rating (0 to 100 scale) ([7]; 125 g ai/ha): 90
- Amaranth, Palmer plant response rating (0-100) ([8]; 31 g ai/ha): 20
- Amaranth, Palmer plant response rating (0 to 100 scale) ([8]; 125 g ai/ha): 70
- Blackgrass plant response rating (0-100) ([9]; 31 g ai/ha): 20
- Blackgrass plant response rating (0 to 100 scale) ([9]; 125 g ai/ha): 90
- Oat, Wild plant response rating (0-100) ([10]; 31 g ai/ha): 60
- Oat, Wild plant response rating (0 to 100 scale) ([10]; 125 g ai/ha): 90
- Wheat plant response rating (0-100) ([11]; 31 g ai/ha): 90
- Wheat plant response rating (0 to 100 scale) ([11]; 125 g ai/ha): 100
- Plant response rating, Barnyardgrass (0 to 100 scale, 0 is no effect and 100 is complete control) [12]: 90
- Plant response rating, Sedge, Umbrella (0 to 100 scale, 0 is no effect and 100 is complete control) [13]: 45
- Plant response rating, Ducksalad (0 to 100 scale, 0 is no effect and 100 is complete control) [14]: 85
- Plant response rating, Rice (0 to 100 scale, 0 is no effect and 100 is complete control) [15]: 15
- Foxtail, Green plant response rating (0-100) [16, 29]: 20
- Foxtail, Green plant response rating (0 to 100 scale) [16, 30]: 80
- Ryegrass, Italian plant response rating (0-100) [17, 29]: 90
- Ryegrass, Italian plant response rating (0 to 100 scale) [17, 30]: 90
- Barnyardgrass plant response rating (0-100) [18, 29]: 90
- Barnyardgrass plant response rating (0 to 100 scale) [18, 30]: 100
- Corn plant response rating (0-100) [19, 29]: 100
- Corn plant response rating (0 to 100 scale) [19, 30]: 100
- Ragweed plant response rating (0-100) [20, 29]: 50
- Ragweed plant response rating (0 to 100 scale) [20, 30]: 60
- Soybean plant response rating (0-100) [21, 29]: 70
- Soybean plant response rating (0 to 100 scale) [21, 30]: 70
- Kochia plant response rating (0-100) [22, 29]: 80
- Kochia plant response rating (0 to 100 scale) [22, 30]: 80
- Horseweed plant response rating (0-100) [23, 29]: 70
- Horseweed plant response rating (0 to 100 scale) [23, 30]: 80
- Amaranth, Palmer plant response rating (0-100) [24, 29]: 80
- Amaranth, Palmer / Pigweed, Palmer plant response rating (0 to 100 scale) [24, 30]: 90
- Blackgrass plant response rating (0-100) [25, 29]: 50
- Blackgrass plant response rating (0 to 100 scale) [25, 30]: 100
- Oat, Wild plant response rating (0-100) [26, 29]: 90
- Oat, Wild plant response rating (0 to 100 scale) [26, 30]: 90
- Wheat plant response rating (0-100) [27, 29]: 80
- Wheat plant response rating (0 to 100 scale) [27, 30]: 90
- Galium plant response rating (0-100) [28, 29]: 80
- Galium plant response rating (0 to 100 scale) [28, 30]: 80
